For 10 compounds, IC50 results are on record in patent US8519134B2, “Aryl-pyridine derivatives as aldosterone synthase inhibitors” (Novartis AG, priority 2009, dated 2013).

Each structure is given as a SMILES string. Where a name gives a salt, the structure may show the parent alone.

One assay addresses T1, CYP11B2 (aldosterone) (Homo sapiens, UniProt P19099).
T1 construct: host or cells: NCI-H295R (human adrenocortical carcinoma)
T1 sequence (P19099 25-503): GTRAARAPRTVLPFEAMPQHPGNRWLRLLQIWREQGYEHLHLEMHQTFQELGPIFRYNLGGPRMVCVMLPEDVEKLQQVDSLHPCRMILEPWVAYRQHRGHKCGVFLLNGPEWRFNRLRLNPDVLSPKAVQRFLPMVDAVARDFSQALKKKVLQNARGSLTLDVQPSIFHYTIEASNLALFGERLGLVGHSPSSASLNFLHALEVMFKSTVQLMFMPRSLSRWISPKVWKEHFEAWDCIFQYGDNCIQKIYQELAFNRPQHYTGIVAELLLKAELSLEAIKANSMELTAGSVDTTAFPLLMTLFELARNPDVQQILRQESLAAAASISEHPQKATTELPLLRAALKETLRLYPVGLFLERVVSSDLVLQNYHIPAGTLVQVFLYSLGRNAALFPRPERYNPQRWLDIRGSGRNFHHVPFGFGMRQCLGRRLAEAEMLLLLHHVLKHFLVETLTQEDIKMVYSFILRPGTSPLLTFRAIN
The assay can be described thus: Inhibition of aldosterone production in NCI-H295R cells (Ang II stimulated, SPA). Format: cell-based. The following applies: inhibitory activity on aldosterone production, read-out: Aldosterone (cell). An excerpt: In particular, the aldosterone synthase inhibitory activities in vitro can be determined by the following assay.
Human adrenocortical carcinoma NCI-H295R cell line was obtained from American Type Culture Collection (Manassas, Va.). Insulin/transferrin/selenium (ITS)-A supplement (100×), DMEM/F-12, antibiotic/antimycotic (100×), and fetal bovine serum (FBS) were purchased from Invitrogen (Carlsbad, Calif.). Anti-mouse PVT scintillation proximity assay (SPA) beads and NBS 96-well plates were obtained from GE Health Sciences (Piscataway, N.J.) and Corning (Acton, Mass.), respectively. Solid black 96-well flat bottom plates were purchased from Costar (Corning, N.Y.). Aldosterone and angiotensin (Ang II) were purchased from Sigma (St. Louis, Mo.). D-[1,2,6,7-^3H(N)]aldosterone was acquired from PerkinElmer (Boston, Mass.). Nu-serum was a product of BD Biosciences (Franklin Lakes, N.J.).
For in vitro measurement of aldosterone activity, human adrenocortical carcinoma NCI-H295R cells are seeded in NBS 96-well plates at a density of 25,000 cells/well in 100 μl of a growth medium containing DMEM/F12 supplemented with 10% FCS, 2.5% Nu-serum, 1 μg ITS/ml, and 1× antibiotic/antimycotic. The medium is changed after culturing for 3 days at 37° C. under an atmosphere of 5% CO2/95% air. On the following day, cells are rinsed with 100 μl of phosphate-buffered saline (PBS) and incubated with 100 μl of treatment medium containing 1 μM Ang II and a compound at different concentrations in quadruplicate wells at 37° C. for 24 hr. At the end of incubation, 50 μl of medium is withdrawn from each well for measurement of aldosterone production by an SPA using mouse anti-aldosterone monoclonal antibodies.
Measurement of aldosterone activity can also be performed using a 96-well plate format. Each test sample is incubated with 0.02 μCi of D-[1,2,6,7-^3H(N)]aldosterone and 0.3 μg of anti-aldosterone antibody in PBS containing 0.1% Triton X-100, 0.1% bovine serum albumin, and 12% glycerol in a total volume of 200 μl at room temperature for 1 hr. Anti-mouse PVT SPA beads (50 μl) are then added to each well and incubated overnight at room temperature prior to counting in a Microbeta plate counter. The amount of aldosterone in each sample is calculated by comparing with a standard curve generated using known quantities of the hormone.
The inhibition activity of aldosterone production can also be expressed in percentage inhibition (% inhibition) at a given concentration (e.g. % inhibition at 1 μM), which is the aldosterone level when the cell is treated with the given concentration of a compound of this invention (e.g. concentration of 1 μM) versus the aldosterone excretion when cell is free of the compound of the invention: % inhibition aldosterone production=[(Y−X)/Y]×100 wherein X is the level of aldosterone when the cell is treated with a compound according to anyone of Formulae I to V, or a pharmaceutically acceptable salt thereof; and Y is the level of aldosterone when the cell is free of compound according to anyone of Formulae I to V.

For another assay, the target named is T2, CYP11B1(cortisol) (Homo sapiens, UniProt P15538).
T2 construct: Thus, the NCI-H295R cells have CYP11 B1 (steroid 11 β-hydroxylase); host or cells: NCI-H295R (human adrenocortical carcinoma)
T2 sequence (P15538 25-503): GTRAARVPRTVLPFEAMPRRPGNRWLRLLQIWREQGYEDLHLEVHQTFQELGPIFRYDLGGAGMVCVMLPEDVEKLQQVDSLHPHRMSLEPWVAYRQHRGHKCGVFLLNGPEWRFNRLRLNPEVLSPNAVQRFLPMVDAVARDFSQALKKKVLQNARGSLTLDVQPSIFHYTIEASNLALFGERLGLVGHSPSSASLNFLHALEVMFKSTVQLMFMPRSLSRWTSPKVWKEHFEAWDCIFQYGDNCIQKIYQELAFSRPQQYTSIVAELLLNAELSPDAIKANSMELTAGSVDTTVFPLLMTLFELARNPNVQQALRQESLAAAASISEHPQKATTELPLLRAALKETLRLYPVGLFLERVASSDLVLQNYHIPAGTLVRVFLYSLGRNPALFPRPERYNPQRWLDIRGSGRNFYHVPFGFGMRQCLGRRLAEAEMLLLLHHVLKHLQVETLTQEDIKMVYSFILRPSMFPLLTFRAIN
As to the kind of experiment: Inhibition of cortisol production in NCI-H295R cells. Format: cell-based. The following applies: inhibitory activity on cortisol production, read-out: Cortisol (cell). An excerpt:
The in vitro inhibitory activities for CYP11B1 can be determined by the following assay.
The cell line NCI-H295R was originally isolated from an adrenocortical carcinoma and has been characterized in the literature through the stimulable secretion of steroid hormones and the presence of the enymes essential for steroidogenesis. Thus, the NCI-H295R cells have CYP11 B1 (steroid 11 β-hydroxylase). The cells show the physiological property of zonally undifferentiated human foetal adrenocortical cells which, however, have the capacity to produce the steroid hormones which are formed in the three, phenotypically distinguishable zones in the adult adrenal cortex.
The NCI-H295R cells (American Type Culture Collection, ATCC, Rockville, Md., USA) are grown in Dulbeoco's Modified Eagle'Ham F-12 Medium (DME/F12), which has been supplemented with Ulroser SF Serum (Soprachem, Cergy-Saint-Christophe, France), insulin, transferrin, selenite (I-T-S, Becton Dickinson Biosiences, Franklin lakes, NJ, USA) and antibiotics in 75 cm^2 cell culture vessels at 37° C. and in a 95% air-5% carbon dioxide atmosphere. The cells are subsequently transferred for colony formation into a 24-well incubation vessel. They are cultivated there in DME/F12 medium, which is now supplemented with 0.1% bovine serum instead of Ultroser SF for 24 hours. The experiment is initiated by cultivating the cells in DME/F12 medium which is supplemented with 0.1% bovine serum albumin and test compound, in the presence or absence of cell stimulants, for 72 hours. The test substance is added in a concentration range from 0.2 nanomolar to […]. Cell stimulants which can be used are angiotensin 11 ([…] or 100 nanomolar), potassium ions (16 millimolar), forskolin (10 micromolar) or a combination of two stimulants.
The excretion of aldosterone, cortisol, corticosterone and estradiol/estrone into the culture medium can be detected and quantified by commercially available, specific monoclonal antibodies in radioimmunoassays in accordance with the manufacturers instructions.
Inhibition of the release of certain steroids can be used as a measure of the respective enzyme inhibition by the added test compounds. The dose-dependent inhibition of enzymic activity by a compound is calculated by means of an inhibition plot which is characterized by an IC50.
The IC50 values for active test compounds are ascertained by a simple linear regression analysis in order to construct inhibition plots without data weighting. The inhibition plot is calculated by fitting a 4-parameter logistic function to the raw data points using the least squares method. The equation of the 4-parameter logistic function is calculated as follows: Y=(d−a)/((1+(x/c)b))+a, where: a=minimum data level, b=gradient, I […], d=maximum data level, x=inhibitor concentration.
The inhibition activity of CYP11B1 production can also be expressed in percentage inhibition (% inhibition) at a given concentration (e.g. % inhibition at 1 μM), which is the cortisol level when cell is treated with the given concentration of a compound of the invention (e.g. concentration of 1 μM) versus the cortisol excretion when cell is free of the compound of the invention. % inhibition cortisol production=[(Y′−X′)/Y′]×100 wherein X′ is the level of cortisol when the cell is treated with a compound according to anyone of Formulae I to V, or a pharmaceutically acceptable salt thereof; and Y′ is the level of cortisol when the cell is free of compound according to anyone of Formulae I to V.

With `CC1OC(=O)c2cncc(-c3ccc(C#N)c(Cl)c3)c21` (stereo not shown) [Example 24, 2-chloro-4-(1-methyl-3-oxo-1,3-dihydrofuro[3,4-c]pyridin-7-yl)benzonitrile], the IC50 on CYP11B2 (aldosterone) came out at 261 nM.
`CC(C)OCC(O)c1c(F)cncc1-c1ccc(C#N)c(Cl)c1` (stereo not shown) [Example 30, 2-Chloro-4-[5-fluoro-4-(1-hydroxy-2-isopropoxy-ethyl)-pyridin-3-yl]-benzonitrile hydrochloride]: the values for the IC50 on CYP11B2 (aldosterone) and at CYP11B1(cortisol) were 144 nM and 4240 nM, respectively.
In the case of `COc1cc(-c2cnccc2C(C)O)ccc1C#N` (single isomer, unassigned) [Example 14 (enantiomer-1)], the IC50 on CYP11B2 (aldosterone) was 132 nM; on CYP11B1(cortisol) it was 3390 nM.
For the compound `CC(O)c1ccncc1-c1ccc(Cl)c(Cl)c1` (stereo not shown) [Example 46, 1-[3-(3,4-Dichloro-phenyl)-pyridin-4-yl]ethanol], the IC50 at CYP11B2 (aldosterone) came out at 76.5 nM; at CYP11B1(cortisol) it was 672 nM.
`CC(O)c1c(F)cncc1-c1ccc2cc(C#N)ccc2c1` (single isomer, unassigned) [5 (enantiomer-1), 6-(5-fluoro-4-(1-hydroxyethyl)pyridin-3-yl)-2-naphthonitrile]: the figures for the IC50 on CYP11B2 (aldosterone) and at CYP11B1(cortisol) were 41.5 nM and 367 nM, respectively.
As for `CC(C)(O)c1c(F)cncc1-c1ccc(C#N)c(Cl)c1` [Example 32, 2-Chloro-4-[5-fluoro-4-(1-hydroxy-1-methyl-ethyl)-pyridin-3-yl]-benzonitrile], the results for the IC50 at CYP11B2 (aldosterone) and on CYP11B1(cortisol) were 154 nM and 15000 nM, respectively.
For `Cn1c(-c2cnccc2CO)nc2ccc(Cl)cc21` [Example 37, [3-(6-Chloro-1-methyl-1H-benzoimidazol-2-yl)-pyridin-4-yl]-methanol], the IC50 on CYP11B2 (aldosterone) came out at 120 nM; at CYP11B1(cortisol) it was 12600 nM.
On to `N#Cc1ccc(-c2cnccc2C2CCO2)cc1Cl` (single isomer, unassigned) [Example 28 (enantiomer-1), 2-chloro-4-(4-(oxetan-2-yl)pyridin-3-yl)benzonitrile], for which the IC50 stood at 23.5 nM at CYP11B2 (aldosterone) and 783 nM on CYP11B1(cortisol).
With `CC(O)c1c(F)cncc1-c1cc2cc(Cl)c(F)cc2o1` (single isomer, unassigned) [Example 13d (enantiomer-2), 1-(3-(5-chloro-6-fluorobenzofuran-2-yl)-5-fluoropyridin-4-yl)ethanol], the IC50 at CYP11B2 (aldosterone) worked out at 2.5 nM; at CYP11B1(cortisol) it was 1070 nM.
For `CC(O)c1c(F)cncc1-c1ccc(C#N)c(Cl)c1` (single isomer, unassigned) [Example 16 (enantiomer-2)] the same measures were 106 nM and 9420 nM.
